From patent publication EP2351737A1, “3-Amino-1-arylpropyl indoles and aza-substituted indoles” (F. Hoffmann-La Roche AG, priority 2005, dated 2007) come the findings set out here.

For assay [1], the target named is T1, Human Serotonin Transporter (hSERT) (Homo sapiens, UniProt P31645).
T1 construct: expressed in transfected cells; membranes prepared from them
The assay is described as follows: Human Serotonin Transporter (hSERT) Scintillation Proximity Assay (SPA), competition with [3H]-Citalopram. The conditions noted are these: membranes of HEK-293 cells expressing recombinant hSERT, Ki by Cheng-Prusoff. It counts as binding. A general note: SPA uses beads or plates that emit light when radiolabelled molecules are held near them.
Text: Screening for Human Serotonin Transporter (hSERT) Antagonists Using a Scintillation Proximity Assay (SPA)
Scintillation Proximity Assay (SPA) works by bringing radioligand within close proximity to the bead's scintillant to stimulate light emission. […] Unbound radioligand produced no signal as a result of distant proximity to scintillant (lack of energy transfer).

Assay [2] has as its target Human Norepinephrine Transporter (hNET) (Homo sapiens, UniProt P23975). Kind of assay: Human Norepinephrine Transporter (hNET) Scintillation Proximity Assay (SPA), competition with [3H]-Nisoxetine. The conditions noted are these: membranes of HEK-293 cells expressing recombinant hNET, Ki by Cheng-Prusoff.

Sequence of Human Norepinephrine Transporter (hNET) (P23975 whole entry): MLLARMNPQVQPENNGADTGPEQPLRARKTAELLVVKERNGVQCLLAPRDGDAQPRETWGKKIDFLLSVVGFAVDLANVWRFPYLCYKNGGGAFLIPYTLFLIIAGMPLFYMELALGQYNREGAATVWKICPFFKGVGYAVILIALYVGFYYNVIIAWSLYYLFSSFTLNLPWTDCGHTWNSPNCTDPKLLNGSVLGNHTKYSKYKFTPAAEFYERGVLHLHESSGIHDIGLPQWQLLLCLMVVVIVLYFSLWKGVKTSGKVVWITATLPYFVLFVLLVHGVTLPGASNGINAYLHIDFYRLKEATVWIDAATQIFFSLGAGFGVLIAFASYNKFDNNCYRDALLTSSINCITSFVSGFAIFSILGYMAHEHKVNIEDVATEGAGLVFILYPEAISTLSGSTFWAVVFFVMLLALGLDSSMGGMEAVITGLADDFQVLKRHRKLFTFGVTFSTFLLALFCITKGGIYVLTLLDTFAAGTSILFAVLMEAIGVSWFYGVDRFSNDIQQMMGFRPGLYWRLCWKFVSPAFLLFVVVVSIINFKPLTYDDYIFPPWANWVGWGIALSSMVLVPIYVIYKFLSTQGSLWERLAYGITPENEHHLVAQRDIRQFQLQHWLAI
T1 sequence (P31645 whole entry): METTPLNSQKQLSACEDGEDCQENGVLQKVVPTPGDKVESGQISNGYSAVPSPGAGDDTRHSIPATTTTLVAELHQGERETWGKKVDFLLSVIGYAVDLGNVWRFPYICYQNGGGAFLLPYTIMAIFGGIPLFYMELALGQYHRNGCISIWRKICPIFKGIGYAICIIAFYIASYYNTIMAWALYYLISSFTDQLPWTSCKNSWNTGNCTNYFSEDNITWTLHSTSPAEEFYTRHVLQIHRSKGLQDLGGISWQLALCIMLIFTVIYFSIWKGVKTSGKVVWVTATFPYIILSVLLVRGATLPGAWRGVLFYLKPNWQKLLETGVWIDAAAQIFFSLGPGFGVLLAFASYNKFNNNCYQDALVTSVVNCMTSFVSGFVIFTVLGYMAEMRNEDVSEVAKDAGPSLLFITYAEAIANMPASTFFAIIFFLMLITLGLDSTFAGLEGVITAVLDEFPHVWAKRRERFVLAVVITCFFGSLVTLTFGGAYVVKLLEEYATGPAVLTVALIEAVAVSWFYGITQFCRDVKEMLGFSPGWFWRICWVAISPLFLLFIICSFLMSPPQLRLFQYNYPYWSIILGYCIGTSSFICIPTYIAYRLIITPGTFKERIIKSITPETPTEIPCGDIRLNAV

As for `CNCCC(c1cccc(F)c1)c1cc(Cl)c2[nH]ccc2c1` (stereo not shown) [Compound 108], the Ki is 12.9 nM in assay [1] (read-out: pKi SERT (converted)) and 2.88 nM in assay [2] (pKi NET).
On to `CNCCC(c1ccccc1)c1ccc2c(C#N)c[nH]c2c1` (stereo not shown) [Compound 28, 6-(3-Methylamino-1-phenyl-propyl)-1H-indole-3-carbonitrile], for which the “pKi SERT” value in assay [1] was 9.72. Also, the “pKi NET” value in assay [2] turned out to be 6.89.
